Results from US20170226518A1, “COMPOSITIONS AND METHODS FOR TREATING CANCER” (Autotelic LLC, priority 2016, published 2017).
In the oligonucleotide strings, read from the 5' end, every base follows the letter of its sugar. An asterisk marks phosphorothioate; unmarked linkages are phosphodiester. Other units and linkages are bracketed, terminal groups are in braces. A string of capitals states the bases alone. d = 2'-deoxy (DNA)

Assays:
[1] = test system: C8161 human melanoma cells; assay: C8161 melanoma xenograft model: tumor growth and survival
Method: Sixty female athymic nude mice were intradermally inoculated with C8161 human melanoma cells and randomized into six groups of 10 mice. Three groups received monotherapy treatment with either OT-101 (trabedersen) (16 mg/kg) (Group 2) or Dacarbazine (DTIC; 1 or 10 mg/kg; Groups 3, 4). Two groups received combination therapy with OT-101/DTIC at 16/1 mg/kg or 16/10 mg/kg (Groups 5 and 6). Vehicle (0.9% saline, Groups 1, 3, and 4) and OT-101 were administered 3 times/week via subcutaneous injection. Vehicle (0.9% saline, Groups 1 and 2) and DTIC (1 or 10 mg/kg) were administered via intraperitoneal injection four times/week. All OT-101/Trabedersen treatments commenced at day 0 of the study and all DTIC treatments commenced on day 14. Mice were monitored for adverse effects, body weight and tumor size three times weekly. The tumor, lungs, liver and kidneys were excised from all mice at termination and weighed.

[2] = Phase I/II dose escalation study P-001: safety and tolerability (MTD, DLT, TEAE, SAE), i.v. infusion; assay type: in vivo, human
Method: Over-expression of transforming growth factor-beta 2 (TGF-β2) is associated with poor prognosis and plays a key role for malignant progression of various tumors by inducing proliferation, metastasis, angiogenesis and immunosuppression. P-001 trial of trabedersen—Safety and Tolerability of AP 12009 (trabedersen), Administered I.V. in Patients With Advanced Tumors Known to Overproduce TGFβ2, was evaluated to determine if treatment with trabedersen primed the tumors to subsequent chemotherapy.
In the instant study, the primary objective was to determine the Maximum Tolerated Dose (MTD) and the Dose Limited Toxicity (DLT) of two cycles of trabedersen administered intravenously (i.v.) for either 7 days every other week (i.e. 7 days on/7 days off) or for 4 days every other week (4 days on/10 days off). The secondary objective included assessment of antitumor activity of trabedersen administered intravenously for either 7 days every other week (i.e. 7 days on/7 days off) or for 4 days every other week (4 days on/10 days off).
The escalation scheme of this study aimed to determinate the MTD of two cycles of trabedersen (so called ‘core study period’) administered as a continuous i.v. infusion for 7 days every other week (7-days-on/7-days-off) or for 4 days every other week (4-days-on/10-days-off).
In general, it was planned to enroll a cohort of at least 3 evaluable patients per treatment group. For each cohort, the safety data obtained until end of the core study period (period for DLT-assessment, Cycle 1 and Cycle 2) were assessed in an interim analysis and evaluated by a Data and Safety Monitoring Board (DSMB). […] If 2 of these 3 patients experienced a DLT, the number of evaluable patients for the subsequent treatment group was increased to 6 for further evaluation of toxicity. Patients who were withdrawn from the study due to adverse events (AEs) attributed to DLT by the treating clinician, were not replaced but were used to determine the MTD and to evaluate the safety of the study drug. If patients were withdrawn due to other reasons, they were replaced until the treatment group was complete.
The MTD was determined according to the following procedure: If 2 out of 3 patients of 1 cohort experienced a DLT, 3 more patients were enrolled in the same treatment group. If at least 1 of these additional 3 patients also met the toxicity criteria for a DLT, the MTD for two cycles was determined; otherwise the dose escalation was continued upon agreement with the DSMB. MTD for two cycles was then defined as the dose at which no more than 2 out of 3, or 2 out of 6 patients of the same treatment group experienced a DLT. This procedure was followed until the MTD was reached.
After dose escalation had been completed, an additional larger cohort of patients was enrolled and treated with a dose of 140 mg/m^2/day employing the 4-days-on/10-days-off schedule, with endorsement by the DSMB. This cohort was to include at least 12 patients with a histologically or cytologically confirmed diagnosis of stage III or IV pancreatic cancer, corresponding to AJCC 1997 stage IVa and IVb, respectively, and at least 12 patients with stage III or IV melanoma.
The safety population comprised of 61 patients, representing all patients for whom at least once a trabedersen infusion was started. According to the protocol, the MTD was determined according to the following procedure: if 2 out of 3 patients of one cohort experience dose-limiting toxicity, 3 more patients were enrolled in the same treatment group. If at least 1 more patient of this second cohort met the toxicity criteria, MTD for two cycles has been determined (otherwise escalation was continued). MTD for two cycles was then defined as the dose at which no more than 2 out of 3 or 2 out of 6 patients of the same treatment group experienced DLT. […] In the case that 2 patients of the first cohort experienced DLTs that clearly indicated attainment of the MTD, the second cohort could also be omitted. […]

[3] = 4-days-on and 10-days-off schedule
[4] = 4-days-on, 10-daysoff schedule (N = 44)
[5] = 7-days-on and 7-days-off schedule
[6] = 7-days-on, 7-daysoff schedule (N = 17)

In the case of “trabedersen: TGFβ2 specific phosphorothioate antisense oligodeoxynucleotide with the sequence 5′-CGGCATGTCTATTTTGTA-3′ (SEQ ID No: 1) (antisense dC*dG*dG*dC*dA*dT*dG*dT*dC*dT*dA*dT*dT*dT*dT*dG*dT*dA)”, the “Tumor growth suppressed relative to control group 1” value ([1]; day 42, group 2: OT-101 16 mg/kg s.c. 3 times/week from day 0) is reported as 2%, the median survival ([1]; group 2: OT-101 16 mg/kg, sacrifice at tumor size 2,000 mm^3) is reported as 47 days and the DLT observed ([2]; 140 mg/m^2/day, 4-days-on and 10-days-off schedule, one patient) is reported as “dose-limiting Grade 3 upper gastrointestinal hemorrhage”. For the same substance, the “patients who experienced a DLT” value ([2]; 240 mg/m^2/day, 7-days-on and 7-days-off, 2 Grade 3 thrombocytopenia, 1 Grade 3 maculopapular rash) was 3 patients, the “frequency of patients with TEAEs that led to treatment discontinuation” value (from here on “frequency of patients”) [2, 3] was 15.9% and the “patients with TEAEs that led to treatment discontinuation” value [2, 3] was 7 patients. The “Any SAE: No. (%) of patients with SAE” value [2, 4] was 18 (40.9) No. (%) of patients, the “Any SAE: No. of SAEs” value [2, 4] was 28 No. of SAEs and the “Ascites: No. (%) of patients with SAE” value [2, 4] was 0 No. (%) of patients. The “Cancer Pain: No. (%) of patients with SAE” value (from here on “Cancer Pain: No. (%)”) [2, 4] was 2 (4.5) No. (%) of patients, the “Cancer Pain: No. of SAEs” value [2, 4] was 2 No. of SAEs and the “Catheter related Infection: No. (%) of patients with SAE” value (shortened to “Catheter related Infection: No. (%)”) [2, 4] was 1 (2.3) No. (%) of patients. For the same substance, the “Catheter related Infection: No. of SAEs” value [2, 4] was 1 No. of SAEs, the “Cholangitis: No. (%) of patients with SAE” value (shortened to “Cholangitis: No. (%)”) [2, 4] was 3 (6.8) No. (%) of patients and the “Cholangitis: No. of SAEs” value [2, 4] was 3 No. of SAEs. For the same substance, the “Cholestasis: No. (%) of patients with SAE” value (“Cholestasis: No. (%)” below) [2, 4] was 1 (2.3) No. (%) of patients, the “Cholestasis: No. of SAEs” value [2, 4] was 1 No. of SAEs and the “GI hemorrhage: No. (%) of patients with SAE” value [2, 4] was 1 (2.3) No. (%) of patients. For the same substance, the “GI hemorrhage: No. of SAEs” value [2, 4] was 2 No. of SAEs, the “Pneumonia: No. (%) of patients with SAE” value [2, 4] was 0 No. (%) of patients and the “Upper GI hemorrhage: No. (%) of patients with SAE” value (from here on “Upper GI hemorrhage: No. (%)”) [2, 4] was 1 (2.3) No. (%) of patients. For the same substance, the “Upper GI hemorrhage: No. of SAEs” value [2, 4] was 1 No. of SAEs, the “frequency of patients” value [2, 5] was 41.2% and the “patients with TEAEs that led to treatment discontinuation” value [2, 5] was 7 patients. The “daily dose of MTD” value ([2]; 7-days-on and 7-days-off schedule, approx.) was “approx. 4 mg/kg/day”, the “Any SAE: No. (%) of patients with SAE” value [2, 6] was 12 (70.6) No. (%) of patients and the “Any SAE: No. of SAEs” value [2, 6] was 28 No. of SAEs. The “Ascites: No. (%) of patients with SAE” value [2, 6] was 3 (17.6) No. (%) of patients, the “Ascites: No. of SAEs” value [2, 6] was 3 No. of SAEs and the “Cancer Pain: No. (%)” value [2, 6] was 0 No. (%) of patients. For the same substance, the “Catheter related Infection: No. (%)” value [2, 6] was 2 (11.8) No. (%) of patients, the “Catheter related Infection: No. of SAEs” value [2, 6] was 2 No. of SAEs and the “Cholangitis: No. (%)” value [2, 6] was 1 (5.9) No. (%) of patients. For the same substance, the “Cholangitis: No. of SAEs” value [2, 6] was 1 No. of SAEs, the “Cholestasis: No. (%)” value [2, 6] was 1 (5.9) No. (%) of patients and the “Cholestasis: No. of SAEs” value [2, 6] was 1 No. of SAEs. For the same substance, the “GI hemorrhage: No. (%) of patients with SAE” value [2, 6] was 2 (11.8) No. (%) of patients, the “GI hemorrhage: No. of SAEs” value [2, 6] was 3 No. of SAEs and the “Pneumonia: No. (%) of patients with SAE” value [2, 6] was 3 (17.6) No. (%) of patients. The “Pneumonia: No. of SAEs” value [2, 6] was 3 No. of SAEs, the “Upper GI hemorrhage: No. (%)” value [2, 6] was 1 (5.9) No. (%) of patients and the “Upper GI hemorrhage: No. of SAEs” value [2, 6] was 1 No. of SAEs. For the same substance, the “Maximum Tolerated Dose (MTD)” value ([2]; 4 days on and 10 days off regimen, MTD not reached at highest dose tested) was greater than 330 mg/m^2/d, the “Maximum Tolerated Dose (MTD)” value ([2]; 7 days on and 7 days off regimen, continuous i.v. infusion, two cycles) was 160 mg/m^2/d and the “Any SAE: No. (%) of patients with SAE” value ([2]; Total (N = 61)) was 30 (49.2) No. (%) of patients. For the same substance, the “Any SAE: No. of SAEs” value ([2]; Total (N = 61)) was 56 No. of SAEs, the “Ascites: No. (%) of patients with SAE” value ([2]; Total (N = 61)) was 3 (4.9) No. (%) of patients and the “Ascites: No. of SAEs” value ([2]; Total (N = 61)) was 3 No. of SAEs. For the same substance, the “Cancer Pain: No. (%)” value ([2]; Total (N = 61)) was 2 (3.3) No. (%) of patients, the “Cancer Pain: No. of SAEs” value ([2]; Total (N = 61)) was 2 No. of SAEs and the “Catheter related Infection: No. (%)” value ([2]; Total (N = 61)) was 3 (4.9) No. (%) of patients. For the same substance, the “Catheter related Infection: No. of SAEs” value ([2]; Total (N = 61)) was 3 No. of SAEs, the “Cholangitis: No. (%)” value ([2]; Total (N = 61)) was 4 (6.6) No. (%) of patients and the “Cholangitis: No. of SAEs” value ([2]; Total (N = 61)) was 4 No. of SAEs. The “Cholestasis: No. (%)” value ([2]; Total (N = 61)) was 2 (3.3) No. (%) of patients, the “Cholestasis: No. of SAEs” value ([2]; Total (N = 61)) was 2 No. of SAEs and the “GI hemorrhage: No. (%) of patients with SAE” value ([2]; Total (N = 61)) was 3 (4.9) No. (%) of patients. For the same substance, the “GI hemorrhage: No. of SAEs” value ([2]; Total (N = 61)) was 3 No. of SAEs, the “Pneumonia: No. (%) of patients with SAE” value ([2]; Total (N = 61)) was 3 (4.9) No. (%) of patients and the “Pneumonia: No. of SAEs” value ([2]; Total (N = 61)) was 3 No. of SAEs. For the same substance, the “Upper GI hemorrhage: No. (%)” value ([2]; Total (N = 61)) was 2 (3.3) No. (%) of patients, the “Upper GI hemorrhage: No. of SAEs” value ([2]; Total (N = 61)) was 2 No. of SAEs and the “frequency of patients” value ([2]; all patients) was 23.0%. For the same substance, the “patients with TEAEs that led to treatment discontinuation” value ([2]; all patients) was 14 patients, the “total of TEAEs that led to treatment discontinuation” value ([2]; all patients) was 23 TEAEs and the “frequency of patients” value ([2]; colorectal cancer) was 40.0%. The “patients with TEAEs that led to treatment discontinuation” value ([2]; colorectal cancer) was 2 patients, the “frequency of patients” value ([2]; melanoma) was 15.8% and the “patients with TEAEs that led to treatment discontinuation” value ([2]; melanoma) was 3 patients. The “frequency of patients” value ([2]; pancreatic cancer) was 24.3%, the “patients with TEAEs that led to treatment discontinuation” value ([2]; pancreatic cancer) was 9 patients and the “patients for whom a DLT was proclaimed” value ([2]; whole study: 2 pancreatic carcinoma, 2 colorectal cancer) was 4 patients.
